The target of assay [1] is T1, RORγt (Homo sapiens, UniProt P51449).
T1 sequence (P51449 1-497 isoform P51449-2): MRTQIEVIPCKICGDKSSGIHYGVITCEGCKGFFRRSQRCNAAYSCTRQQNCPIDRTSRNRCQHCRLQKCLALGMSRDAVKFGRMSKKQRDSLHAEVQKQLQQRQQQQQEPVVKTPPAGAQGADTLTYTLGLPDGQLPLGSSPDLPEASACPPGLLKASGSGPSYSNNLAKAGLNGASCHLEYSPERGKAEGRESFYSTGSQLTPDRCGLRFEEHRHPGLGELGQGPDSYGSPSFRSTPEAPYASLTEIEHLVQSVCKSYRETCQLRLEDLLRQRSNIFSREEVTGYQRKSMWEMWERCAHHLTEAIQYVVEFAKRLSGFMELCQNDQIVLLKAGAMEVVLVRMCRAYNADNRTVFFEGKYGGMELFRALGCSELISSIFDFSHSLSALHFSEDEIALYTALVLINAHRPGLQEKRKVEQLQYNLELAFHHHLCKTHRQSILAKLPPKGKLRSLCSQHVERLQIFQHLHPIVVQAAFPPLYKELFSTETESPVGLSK
Briefly: RORγt binding test (TR-FRET, fluorescent-labeled cholesterol). The note with it: read-out: binding inhibitory rate (%) of fluorescent-labeled cholesterol to RORγt at test compound 1 μM. In short, it runs like this:
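His-tagged RORγt and BODIPY-cholesterol were incubated with compound for 20 min at room temperature in Tris-HCl pH 7.5, 100 mM NaCl, 1 mM DTT and 0.1% BSA. Terbium anti-His antibody was then added for a further 20 min.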

Assay [2] deals with T1, RORγt. Briefly: Jurkat reporter test (human IL-17 ROR response element luciferase reporter). The format is cell-based. The note with it: read-out: luminescence level inhibitory rate (%) at test compound 3 μM. In short, it runs like this:
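Jurkat cells were electroporated (1350 V, 10 ms, 3 pulses) with reporter constructs, then cultured overnight with compound in RPMI containing 10% lipid-reduced FCS, 10 mM HEPES pH 7.5 and 5 μM lovastatin. Luciferase was quantified by Bright-Glo luminescence after 10 min at room temperature.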

In assay [3] the target is T1, RORγt. The assay is described as follows: Cofactor recruitment test (Alpha Screen, biotinylated SRC-1 peptide). The format is biochemical. The note with it: read-out: signal value inhibitory rate (%) at test compound 1 μM. On the procedure: Cofactor Recruitment Test
Cofactor recruitment test was performed by Alpha Screen (Histidine Detection Kit, PerkinElmer) method. First, a test compound was diluted with an assay buffer (50 mM Tris-HCl (pH 7.5), 50 mM KCl, 1 mM DTT, 0.1% BSA) and added to a 384 well plate by 5 μL. […] The mixture was stood in a dark place for 1 hr, and the signal value was measured by Envision (PerkinElmer).

Setting [4] is: test compound 3 μM, Jurkat cells.

Read-outs that look alike come from different tables or passages of the source.

Our source for the inhibition values is patent US11851449B2, “Heterocyclic amide compounds having an RORvt inhibitory action” (TAKEDA PHARMACEUTICAL COMPANY LIMITED, priority 2013, dated 2023).

Take `COCc1ccc([C@@H](NC(=O)N2CC[C@@H](O)C2)C(=O)Nc2ccc([Si](C)(C)C)c(F)c2)cc1` [Example 66, (3R)—N-((1R)-2-((3-fluoro-4-(trimethylsilyl)phenyl)amino)-1-(4-(methoxymethyl)phenyl)-2-oxoethyl)-3-hydroxypyrrolidine-1-carboxamide]: the inhibition at 1 µM in assay [1] turned out to be 103%; in assay [3], 94.6%. In addition, the inhibition at 3 µM in assay [2] (Jurkat) was found to be 98.5%.

Turning to `CC(C)(C)c1ccc(NC(=O)[C@H](NC(=O)[C@@H]2CNC(=O)C2)C2CCC(F)(F)CC2)cc1F` [Example 7, (3S)—N-((1R)-2-((4-tert-butyl-3-fluorophenyl)amino)-1-(4,4-difluorocyclohexyl)-2-oxoethyl)-5-oxopyrrolidine-3-carboxamide], the inhibition at 1 µM in assay [1] turned out to be 102%; in assay [3] it was 56.9%. Also, the inhibition at 3 µM in assay [2] (setting [4]) was 97%.

For the compound `COCc1ccc([C@@H](NC(=O)CCC(F)(F)F)C(=O)Nc2ccc([Si](C)(C)C)c(F)c2)cc1` [Example 94, 4,4,4-trifluoro-N-((1R)-2-((3-fluoro-4-(trimethylsilyl)phenyl)amino)-1-(4-(methoxymethyl)phenyl)-2-oxoethyl)butanamide], the figures for the inhibition at 1 µM in assay [1] and in assay [3] were 102% and 91.5%, respectively. For the same compound, in assay [2] (Jurkat), the inhibition at 3 µM came to 101%.

For the compound `COCc1ccc([C@@H](NC(=O)C2CCOCC2)C(=O)Nc2ccc([Si](C)(C)C)c(F)c2)cc1` [Example 88, N-((1R)-2-((3-fluoro-4-(trimethylsilyl)phenyl)amino)-1-(4-(methoxymethyl)phenyl)-2-oxoethyl)tetrahydro-2H-pyran-4-carboxamide], the results for the inhibition at 1 µM in assay [1] and in assay [3] were 103% and 90.7%, respectively. The inhibition at 3 µM in assay [2] (Jurkat) was found to be 98.1%.

With `COc1ccc([C@H](C(=O)Nc2cc(F)c([Si](C)(C)C)cc2F)N(C)C(=O)c2cc(O)no2)cc1` [Example 25, N-((1R)-2-((2,5-difluoro-4-(trimethylsilyl)phenyl)amino)-1-(4-methoxyphenyl)-2-oxoethyl)-3-hydroxy-N-methyl-1,2-oxazole-5-carboxamide], the inhibition at 1 µM in assay [1] is 102%; in assay [3] it was 95.7%. The inhibition at 3 µM in assay [2] (Jurkat) came out at 100%.

As for `COc1ccc(C(C(=O)Nc2ccc([Si](C)(C)C)c(Cl)c2)N(C)C(=O)c2cc(O)no2)cc1` (stereo not drawn) [Example 48, N-(2-((3-chloro-4-(trimethylsilyl)phenyl)amino)-1-(4-methoxyphenyl)-2-oxoethyl)-3-hydroxy-N-methyl-1,2-oxazole-5-carboxamide], the inhibition at 1 µM in assay [1] was 103%; in assay [3], 73%. The inhibition at 3 µM in assay [2] (Jurkat) stood at 95.7%.

As for `COc1ccc(C(NC(=O)C2CNC(=O)C2)C(=O)Nc2ccc([Si](C)(C)C)cc2)cc1` (stereo not drawn) [Example 13, N-(1-(4-methoxyphenyl)-2-oxo-2-((4-(trimethylsilyl)phenyl)amino)ethyl)-5-oxopyrrolidine-3-carboxamide], the inhibition at 1 µM in assay [1] was determined as 101%; in assay [3], 51.1%. For the same compound, the inhibition at 3 µM in assay [2] (Jurkat) came out at 92.6%.

In the case of `COc1ccc(C(NC(=O)Cn2ncc3ccccc32)C(=O)Nc2cc(F)c([Si](C)(C)C)cc2F)cc1` (stereo not drawn) [Example 46, N-(2,5-difluoro-4-(trimethylsilyl)phenyl)-2-((1H-indazol-1-ylacetyl)amino)-2-(4-methoxyphenyl)acetamide], the figures for the inhibition at 1 µM in assay [1] and in assay [3] were 99.5% and 87.2%, respectively. Further, the inhibition at 3 µM in assay [2] (Jurkat) was found to be 101%.

Turning to `COCc1ccc([C@@H](NC(=O)CC(F)(F)F)C(=O)Nc2ccc([Si](C)(C)C)c(F)c2)cc1` [Example 93, 3,3,3-trifluoro-N-((1R)-2-((3-fluoro-4-(trimethylsilyl)phenyl)amino)-1-(4-(methoxymethyl)phenyl)-2-oxoethyl)propanamide], the inhibition at 1 µM in assay [1] was determined as 102%; in assay [3], 92.3%. Besides, the inhibition at 3 µM in assay [2] (Jurkat) was 99.1%.

Regarding `COCc1ccc([C@@H](NC(=O)CS(C)(=O)=O)C(=O)Nc2ccc([Si](C)(C)C)c(F)c2)cc1` [Example 81, (2R)—N-(3-fluoro-4-(trimethylsilyl)phenyl)-2-(4-(methoxymethyl)phenyl)-2-(((methylsulfonyl)acetyl)amino)acetamide], the inhibition at 1 µM in assay [1] worked out at 103%; in assay [3], 94.9%. Moreover, the inhibition at 3 µM in assay [2] (Jurkat) was 98.3%.

As for `COCc1ccc([C@@H](NC(=O)Cn2cnccc2=O)C(=O)Nc2cc(F)c([Si](C)(C)C)c(F)c2)cc1` [Example 58, (2R)—N-(3,5-difluoro-4-(trimethylsilyl)phenyl)-2-(4-(methoxymethyl)phenyl)-2-(((6-oxopyrimidin-1(6H)-yl)acetyl)amino)acetamide], the inhibition at 1 µM in assay [1] was determined as 102%; in assay [3] it was 97.1%. In assay [2] (Jurkat), the inhibition at 3 µM turned out to be 98.4%.

`COc1ccc(C(NC(=O)C2CNC(=O)C2)C(=O)Nc2ccc([Si](C)(C)C)c(C#N)c2)cc1` (stereo not drawn) [Example 27, N-(2-((3-cyano-4-(trimethylsilyl)phenyl)amino)-1-(4-methoxyphenyl)-2-oxoethyl)-5-oxopyrrolidine-3-carboxamide]: the inhibition at 1 µM in assay [1] was 103%; in assay [3], 92.5%. Further, the inhibition at 3 µM in assay [2] (Jurkat) was determined as 96%.

`COCc1ccc([C@@H](NC(=O)Cc2nnc(C)o2)C(=O)Nc2ccc([Si](C)(C)C)c(F)c2)cc1` [Example 67, (2R)—N-(3-fluoro-4-(trimethylsilyl)phenyl)-2-(4-(methoxymethyl)phenyl)-2-(((5-methyl-1,3,4-oxadiazol-2-yl)acetyl)amino)acetamide]: the inhibition at 1 µM in assay [1] came to 103%; in assay [3] it was 96%. Moreover, the inhibition at 3 µM in assay [2] (Jurkat) was 98.5%.

For `COc1ccc([C@@H](NC(=O)N2CC[C@H](O)C2)C(=O)Nc2ccc([Si](C)(C)C)c(F)c2)cc1` [Example 64, (3S)—N-((1R)-2-((3-fluoro-4-(trimethylsilyl)phenyl)amino)-1-(4-methoxyphenyl)-2-oxoethyl)-3-hydroxypyrrolidine-1-carboxamide], the inhibition at 1 µM in assay [1] amounted to 102%; in assay [3], 90.1%. For the same compound, the inhibition at 3 µM in assay [2] (Jurkat) amounted to 98.7%.

Regarding `COCc1ccc(C(C(=O)Nc2ccc([Si](C)(C)C)c(F)c2)N(C)C(=O)c2cc(O)no2)cc1` (stereo not drawn) [Example 31, N-(2-((3-fluoro-4-(trimethylsilyl)phenyl)amino)-1-(4-(methoxymethyl)phenyl)-2-oxoethyl)-3-hydroxy-N-methyl-1,2-oxazole-5-carboxamide], the inhibition at 1 µM in assay [1] worked out at 99.5%; in assay [3], 98.3%. In assay [2] (Jurkat), the inhibition at 3 µM is 99.5%.

Regarding `COCc1ccc([C@@H](NC(=O)[C@@H]2CNC(=O)C2)C(=O)Nc2ccc(C(C)(C)C)c(F)c2)cc1` [Example 101, (3S)—N-((1R)-2-((4-tert-butyl-3-fluorophenyl)amino)-1-(4-(methoxymethyl)phenyl)-2-oxoethyl)-5-oxopyrrolidine-3-carboxamide], the inhibition at 1 µM in assay [1] is 101%; in assay [3], 87.6%. Moreover, in assay [2] (setting [4]), the inhibition at 3 µM is 99.5%.

Consider `CC(C)(C)c1ccc(NC(=O)[C@H](NC(=O)C2CNC(=O)O2)C2CCC(F)(F)CC2)cc1F` (stereo partly drawn) [Example 8, N-((1R)-2-((4-tert-butyl-3-fluorophenyl)amino)-1-(4,4-difluorocyclohexyl)-2-oxoethyl)-2-oxo-1,3-oxazolidine-5-carboxamide], for which the inhibition at 1 µM in assay [1] amounted to 102%; in assay [3], 49.1%. The inhibition at 3 µM in assay [2] (setting [4]) turned out to be 93.4%.
